Measurements from patent publication US20220009920A1 (GB005, Inc., priority 2020, published 2022).

Experiments:
Test in all cases: Large panel kinase profiling
Type in all cases: biochemical
Details in all cases: 1 μM test article, 1 mM ATP
CDK4/D3 = molecular target: T1, CDK4/D3 (Homo sapiens, UniProt P11802)
T1 construct: AssayQuant Technologies, Inc. (ran the panel)
Summary of the method: (§1)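 Profiling across the panel relied on the PhosphoSens CSox-Sensor format. A compound concentration of 1 μM and an ATP level of 1 mM were used throughout.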

EPHA6 = molecular target: T2, EPHA6 (Homo sapiens, UniProt Q9UF33)
T2 sequence (Q9UF33 23-1036): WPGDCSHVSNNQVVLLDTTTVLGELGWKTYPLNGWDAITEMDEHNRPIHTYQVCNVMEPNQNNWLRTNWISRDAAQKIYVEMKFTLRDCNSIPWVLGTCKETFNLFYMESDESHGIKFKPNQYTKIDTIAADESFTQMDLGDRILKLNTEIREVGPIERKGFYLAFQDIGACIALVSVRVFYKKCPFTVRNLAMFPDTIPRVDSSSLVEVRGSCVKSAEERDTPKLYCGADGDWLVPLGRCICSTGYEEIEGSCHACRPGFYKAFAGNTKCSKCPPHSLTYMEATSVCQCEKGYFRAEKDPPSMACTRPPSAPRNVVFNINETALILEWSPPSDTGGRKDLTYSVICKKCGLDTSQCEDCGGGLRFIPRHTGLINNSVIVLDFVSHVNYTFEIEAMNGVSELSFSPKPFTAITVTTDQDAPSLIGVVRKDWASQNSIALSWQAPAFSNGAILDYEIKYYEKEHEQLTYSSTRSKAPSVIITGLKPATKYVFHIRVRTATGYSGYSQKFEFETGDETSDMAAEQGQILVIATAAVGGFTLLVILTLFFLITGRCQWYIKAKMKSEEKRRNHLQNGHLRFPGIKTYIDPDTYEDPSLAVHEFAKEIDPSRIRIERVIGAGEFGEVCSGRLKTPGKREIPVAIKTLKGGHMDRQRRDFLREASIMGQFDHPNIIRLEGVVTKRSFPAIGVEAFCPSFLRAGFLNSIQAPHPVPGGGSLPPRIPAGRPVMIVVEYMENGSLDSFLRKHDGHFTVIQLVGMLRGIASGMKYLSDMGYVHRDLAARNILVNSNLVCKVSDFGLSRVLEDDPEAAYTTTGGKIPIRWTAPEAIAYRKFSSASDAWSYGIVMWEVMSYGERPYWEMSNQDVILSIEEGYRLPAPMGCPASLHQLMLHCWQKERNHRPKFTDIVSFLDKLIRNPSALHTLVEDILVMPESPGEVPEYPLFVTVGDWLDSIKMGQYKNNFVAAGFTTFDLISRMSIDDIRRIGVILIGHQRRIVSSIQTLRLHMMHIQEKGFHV
Summary of the method: as §1

INSR = molecular target: T3, INSR (Homo sapiens, UniProt P06213)
T3 construct: AssayQuant Technologies, Inc. (service provider)
T3 sequence (P06213 28-1382, species assumed): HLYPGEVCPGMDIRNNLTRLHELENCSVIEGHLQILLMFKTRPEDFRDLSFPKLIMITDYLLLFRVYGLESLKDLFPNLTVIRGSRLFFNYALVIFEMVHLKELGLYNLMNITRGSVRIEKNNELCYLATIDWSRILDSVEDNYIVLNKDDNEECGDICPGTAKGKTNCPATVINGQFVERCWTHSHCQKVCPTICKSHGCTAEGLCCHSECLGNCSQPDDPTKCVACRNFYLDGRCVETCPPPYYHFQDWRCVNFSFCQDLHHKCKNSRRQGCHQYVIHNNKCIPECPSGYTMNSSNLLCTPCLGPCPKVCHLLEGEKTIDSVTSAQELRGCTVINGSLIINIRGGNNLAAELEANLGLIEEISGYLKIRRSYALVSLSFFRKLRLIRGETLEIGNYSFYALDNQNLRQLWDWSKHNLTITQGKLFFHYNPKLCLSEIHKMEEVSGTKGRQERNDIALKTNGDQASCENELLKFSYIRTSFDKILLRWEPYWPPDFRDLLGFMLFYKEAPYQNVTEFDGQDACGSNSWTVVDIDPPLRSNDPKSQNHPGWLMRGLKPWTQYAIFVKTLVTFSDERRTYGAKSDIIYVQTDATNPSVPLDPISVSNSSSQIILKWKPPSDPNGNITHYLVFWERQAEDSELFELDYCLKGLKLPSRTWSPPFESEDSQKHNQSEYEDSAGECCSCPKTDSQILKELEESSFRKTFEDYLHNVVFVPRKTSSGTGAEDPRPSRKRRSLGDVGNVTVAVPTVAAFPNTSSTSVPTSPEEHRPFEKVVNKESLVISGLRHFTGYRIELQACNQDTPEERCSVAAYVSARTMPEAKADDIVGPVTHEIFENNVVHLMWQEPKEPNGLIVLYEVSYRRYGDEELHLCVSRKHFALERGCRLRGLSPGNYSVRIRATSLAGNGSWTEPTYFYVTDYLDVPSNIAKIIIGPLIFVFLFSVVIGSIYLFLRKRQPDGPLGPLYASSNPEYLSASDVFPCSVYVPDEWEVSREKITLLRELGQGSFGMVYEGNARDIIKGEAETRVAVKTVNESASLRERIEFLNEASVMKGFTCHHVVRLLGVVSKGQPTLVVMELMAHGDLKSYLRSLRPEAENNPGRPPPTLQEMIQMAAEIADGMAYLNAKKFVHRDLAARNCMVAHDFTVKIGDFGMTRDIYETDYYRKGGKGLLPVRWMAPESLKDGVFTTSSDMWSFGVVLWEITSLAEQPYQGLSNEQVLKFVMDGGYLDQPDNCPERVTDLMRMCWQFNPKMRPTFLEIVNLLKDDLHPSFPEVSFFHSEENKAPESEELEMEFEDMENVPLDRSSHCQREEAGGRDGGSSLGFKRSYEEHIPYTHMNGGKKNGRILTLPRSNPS
Summary of the method: as §1

LATS2 = molecular target: T4, LATS2 (Homo sapiens, UniProt Q9NRM7)
T4 sequence (Q9NRM7 1-1088): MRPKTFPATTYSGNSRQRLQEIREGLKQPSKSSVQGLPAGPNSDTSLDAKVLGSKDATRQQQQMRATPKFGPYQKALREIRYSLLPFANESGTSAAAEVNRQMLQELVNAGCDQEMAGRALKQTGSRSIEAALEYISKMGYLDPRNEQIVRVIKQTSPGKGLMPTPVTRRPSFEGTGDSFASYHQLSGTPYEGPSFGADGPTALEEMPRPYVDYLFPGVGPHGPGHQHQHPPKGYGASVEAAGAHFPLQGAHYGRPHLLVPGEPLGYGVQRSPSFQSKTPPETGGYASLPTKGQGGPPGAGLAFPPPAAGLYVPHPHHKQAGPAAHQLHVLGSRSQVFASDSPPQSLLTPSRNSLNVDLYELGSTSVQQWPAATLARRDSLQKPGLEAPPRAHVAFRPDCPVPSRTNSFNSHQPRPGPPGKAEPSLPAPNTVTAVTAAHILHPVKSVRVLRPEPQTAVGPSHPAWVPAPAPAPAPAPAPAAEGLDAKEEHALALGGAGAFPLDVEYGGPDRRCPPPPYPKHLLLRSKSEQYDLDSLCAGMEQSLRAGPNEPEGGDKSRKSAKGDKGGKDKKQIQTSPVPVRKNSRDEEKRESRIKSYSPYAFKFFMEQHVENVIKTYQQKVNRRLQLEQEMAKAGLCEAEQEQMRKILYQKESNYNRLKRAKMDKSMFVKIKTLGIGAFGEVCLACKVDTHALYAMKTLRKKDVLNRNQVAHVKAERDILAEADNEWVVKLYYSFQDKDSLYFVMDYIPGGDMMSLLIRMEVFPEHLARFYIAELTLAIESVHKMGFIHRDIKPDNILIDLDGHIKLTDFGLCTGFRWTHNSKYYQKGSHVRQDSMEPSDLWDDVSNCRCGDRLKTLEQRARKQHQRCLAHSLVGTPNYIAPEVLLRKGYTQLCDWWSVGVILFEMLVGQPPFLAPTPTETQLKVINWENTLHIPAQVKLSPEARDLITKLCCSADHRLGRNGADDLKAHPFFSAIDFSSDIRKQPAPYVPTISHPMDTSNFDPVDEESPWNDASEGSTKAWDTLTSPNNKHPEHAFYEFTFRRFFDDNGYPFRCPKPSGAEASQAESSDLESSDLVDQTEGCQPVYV
Summary of the method: as §1

MAP3K9 = molecular target: T5, MAP3K9 (Homo sapiens, UniProt P80192)
T5 construct: AssayQuant Technologies, Inc. (service provider)
T5 sequence (P80192 whole entry, species assumed): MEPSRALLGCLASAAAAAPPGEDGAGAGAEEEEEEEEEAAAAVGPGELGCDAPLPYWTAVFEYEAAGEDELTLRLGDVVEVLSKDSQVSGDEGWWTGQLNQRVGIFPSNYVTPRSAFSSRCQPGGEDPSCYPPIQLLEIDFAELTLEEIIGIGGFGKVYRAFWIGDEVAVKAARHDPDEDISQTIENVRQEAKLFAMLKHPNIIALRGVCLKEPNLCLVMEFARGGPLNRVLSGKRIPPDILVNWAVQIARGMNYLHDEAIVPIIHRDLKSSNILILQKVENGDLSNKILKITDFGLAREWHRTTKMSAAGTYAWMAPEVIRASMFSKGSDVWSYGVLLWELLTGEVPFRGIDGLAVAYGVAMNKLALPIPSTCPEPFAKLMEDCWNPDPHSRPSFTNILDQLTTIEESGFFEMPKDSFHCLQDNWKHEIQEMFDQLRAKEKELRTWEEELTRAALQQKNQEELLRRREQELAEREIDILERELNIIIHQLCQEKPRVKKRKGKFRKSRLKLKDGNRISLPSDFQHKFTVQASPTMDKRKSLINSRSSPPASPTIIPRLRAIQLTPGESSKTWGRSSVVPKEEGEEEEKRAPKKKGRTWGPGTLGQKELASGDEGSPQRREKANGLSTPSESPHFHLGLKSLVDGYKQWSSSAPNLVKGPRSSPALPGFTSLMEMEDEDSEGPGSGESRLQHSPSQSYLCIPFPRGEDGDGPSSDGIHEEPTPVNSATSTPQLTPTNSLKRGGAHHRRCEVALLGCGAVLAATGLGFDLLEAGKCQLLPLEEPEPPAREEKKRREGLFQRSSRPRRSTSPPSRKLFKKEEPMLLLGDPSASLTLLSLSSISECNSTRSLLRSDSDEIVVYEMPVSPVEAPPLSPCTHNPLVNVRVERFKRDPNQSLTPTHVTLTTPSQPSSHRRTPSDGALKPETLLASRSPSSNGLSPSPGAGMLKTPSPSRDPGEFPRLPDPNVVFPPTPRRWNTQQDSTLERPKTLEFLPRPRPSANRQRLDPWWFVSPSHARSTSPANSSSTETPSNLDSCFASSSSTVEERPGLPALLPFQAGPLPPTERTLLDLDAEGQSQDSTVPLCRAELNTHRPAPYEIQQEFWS
Summary of the method: as §1

TYK2(JH1) = molecular target: T6, TYK2(JH1) (Homo sapiens, UniProt P29597)
T6 construct: TYK2(JH1); AssayQuant Technologies, Inc. (contract laboratory that ran the panel)
T6 sequence (P29597 897-1176 limits assumed): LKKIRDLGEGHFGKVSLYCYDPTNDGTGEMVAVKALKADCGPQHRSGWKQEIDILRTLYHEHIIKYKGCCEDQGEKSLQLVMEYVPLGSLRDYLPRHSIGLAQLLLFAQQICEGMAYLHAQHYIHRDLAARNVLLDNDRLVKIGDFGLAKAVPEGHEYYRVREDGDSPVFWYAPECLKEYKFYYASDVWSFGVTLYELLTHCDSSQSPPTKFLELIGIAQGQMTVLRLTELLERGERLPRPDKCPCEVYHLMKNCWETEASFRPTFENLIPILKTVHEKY
Summary of the method: as §1

T1 sequence (P11802 whole entry, species assumed): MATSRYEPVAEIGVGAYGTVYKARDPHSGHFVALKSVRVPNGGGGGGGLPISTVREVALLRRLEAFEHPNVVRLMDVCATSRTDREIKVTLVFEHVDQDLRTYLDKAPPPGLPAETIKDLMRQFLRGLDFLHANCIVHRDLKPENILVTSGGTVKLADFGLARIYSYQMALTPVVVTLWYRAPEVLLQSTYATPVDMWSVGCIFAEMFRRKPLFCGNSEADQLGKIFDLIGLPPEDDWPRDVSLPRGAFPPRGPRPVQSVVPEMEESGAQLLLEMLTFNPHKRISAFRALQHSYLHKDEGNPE
T1 sequence (P30281 whole entry partner, species assumed): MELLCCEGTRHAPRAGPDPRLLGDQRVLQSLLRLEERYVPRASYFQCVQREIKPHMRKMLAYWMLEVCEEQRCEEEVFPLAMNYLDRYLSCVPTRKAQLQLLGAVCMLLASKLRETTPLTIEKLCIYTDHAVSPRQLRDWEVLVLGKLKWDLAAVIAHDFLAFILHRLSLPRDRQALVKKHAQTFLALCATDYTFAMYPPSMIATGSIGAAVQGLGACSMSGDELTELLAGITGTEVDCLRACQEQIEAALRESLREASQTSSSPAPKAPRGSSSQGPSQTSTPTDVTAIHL

Row | Compound | inhibition at 1 µM (CDK4/D3) [%] | inhibition at 1 µM (EPHA6) [%] | inhibition at 1 µM (INSR) [%] | inhibition at 1 µM (LATS2) [%] | inhibition at 1 µM (MAP3K9) [%] | inhibition at 1 µM (TYK2(JH1)) [%]
1 | C=CC(=O)N1CCCC(c2c(F)cc(C(N)=O)c3[nH]c4c(c23)CCCCC4)C1 (single isomer, unassigned) [Compound 5-6] | -4.9 | 6.1 | 10.3 | 6.3 | -0.9 | -2.7
2 | C=CC(=O)N1CCC[C@@H](c2c(F)cc(C(N)=O)c3[nH]c4c(c23)CC2(CC4)CC2)C1 [Compound 6-2, (S)-5-(1-acryloylpiperidin-3-yl)-6-fluoro-1,2,4,9-tetrahydrospiro[carbazole-3,1′-cyclopropane]-8-carboxamide] | -13 | -14.6 | -6.6 | 1.5 | 28.8 | -1.1
3 | C=CC(=O)N1CCC[C@@H](c2c(F)cc(C(N)=O)c3[nH]c4c(c23)CCC4)C1 [Compound 10-2, (S)-8-(1-acryloylpiperidin-3-yl)-7-fluoro-1,2,3,4-tetrahydrocyclo-penta[b]indole-5-carboxamide] | -19.5 | -17.7 | -6 | -0.7 | 12.3 | 3.5
